The results in this text go back to patent US12617783B2, “Heterocyclic GLP-1R agonists” (BIOMEA FUSION, INC., priority 2024, dated 2026).

In the test the target is T1, human GLP-1R (Homo sapiens, UniProt P43220).
T1 construct: host or cells: HEK293
T1 sequence (P43220 24-463): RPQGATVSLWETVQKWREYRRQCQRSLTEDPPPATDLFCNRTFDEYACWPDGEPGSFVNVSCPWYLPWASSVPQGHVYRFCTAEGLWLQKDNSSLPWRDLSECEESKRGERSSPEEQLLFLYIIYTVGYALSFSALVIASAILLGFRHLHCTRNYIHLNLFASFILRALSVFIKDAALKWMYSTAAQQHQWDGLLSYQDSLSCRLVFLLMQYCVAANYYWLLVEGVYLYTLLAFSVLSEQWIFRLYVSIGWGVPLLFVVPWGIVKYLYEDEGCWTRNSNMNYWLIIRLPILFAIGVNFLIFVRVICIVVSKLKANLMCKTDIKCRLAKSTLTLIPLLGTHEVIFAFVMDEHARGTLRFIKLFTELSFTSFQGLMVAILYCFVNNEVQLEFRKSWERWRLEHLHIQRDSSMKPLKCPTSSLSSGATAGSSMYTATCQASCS
Put plainly: GLP-1R cAMP assay (Example B1a, HTRF, 30 min at room temperature). The test is classed as cell-based. The note with it: cAMP accumulation in HEK293 expressing human GLP-1R, no BETP, 30 min room temperature (Method B1a, compounds ID 1-609), Table 1; read-out: EC50. How it is done: Assay was carried out with HEK293 expressing human GLP-1R using HTRF assay, developed by Wuxi Apptec. The method is a competitive assay between native cAMP produced by the cells and exogenous cAMP labeled with a proprietary dye d2. The tracer binding is visualized by a mAb anti-cAMP labeled with Cryptate. The signal (i.e. energy transfer) is inversely proportional to the concentration of CAMP in either standard or experimental sample. Compounds were tested in the absence of BETP. Ten microliter of cell suspension in assay buffer (5 mM HEPES, 500 μM IBMX, 0.1% BSA) were added to each well (1,000 cells per well) in a low volume 384-well plate for the assay. Serially diluted compounds were added in 100 nL volume to duplicate wells, by Labcyte Echo. GLP-1 (7-37) was used as positive control. Assay plate was incubated for 30 minutes at room temperature. Stock of cAMP Detection Solution was prepared by mixing 38 parts of cAMP lysis buffer, 1 part of cAMP-D2, 1 part of anti-cAMP cryptate reagent (Cisbio #62AM4PEJ). Ten microliter of the cAMP Detection Solution was added to each well, and the assay plate was incubated for 1 hour at room temperature in the dark. Plates were read on Envision plate reader. The data were analyzed by ScreenUltra in Dotmatics, with % activation expressed using following formula: (Well data−negative control)/(postive control−negative control)*100. Dose response curves were plotted and EC50 values calculated by non-linear regression using 4-parameter fit.
(In general: Cyclic AMP is a second messenger, typically raised through Gs and lowered through Gi signalling.)
`Cc1cc(-n2nc3c(c2-n2ccn(-c4ccc5nnccc5c4)c2=O)[C@@H]2CC[C@H](C3)N2C(=O)c2cc3cc([C@H]4CCOC(C)(C)C4)ccc3n2C2(c3noc(=O)[nH]3)CC2)cc(C)c1F` [Compound 119, 3-[1-[2-[(1S,8R)-3-(3-cinnolin-6-yl-2-oxo-imidazol-1-yl)-4-(4-fluoro-3,5-dimethyl-phenyl)-4,5,11-triazatricyclo[6.2.1.02,6]undeca-2,5-diene-11-carbonyl]-5-[(4S)-2,2-dimethyltetrahydropyran-4-yl]indol-1-yl]cyclopropyl]-4H-1,2,4-oxadiazol-5-one]: the EC50 was determined as 2280 nM.
In the case of `Cc1cc(-n2nc3c(c2-n2ccn(-c4ccc5c(cnn5C)c4Cl)c2=O)[C@@H]2COC[C@H](C3)N2C(=O)c2cc3cc(C4CCOC5(CC5)C4)ccc3n2[C@@]2(c3noc(=O)[nH]3)C[C@@H]2C)cc(C)c1F` (stereo partly drawn) [Compound 230, 3-[(1S,2S)-1-[2-[(1R,8S)-3-[3-(4-chloro-1-methyl-indazol-5-yl)-2-oxo-imidazol-1-yl]-4-(4-fluoro-3,5-dimethyl-phenyl)-10-oxa-4,5,12-triazatricyclo[6.3.1.02,6]dodeca-2,5-diene-12-carbonyl]-5-(4-oxaspiro[2.5]octan-7-yl)indol-1-yl]-2-methyl-cyclopropyl]-4H-1,2,4-oxadiazol-5-one] it was 389 nM.
Take `Cc1cc(-n2nc3c(c2-n2ccn(-c4ccc5c(cnn5C)c4F)c2=O)[C@@H]2CC[C@H](C3)N2C(=O)c2cc3cc([C@H]4CCOC(C)(C)C4)ccc3n2C2(c3nnn[nH]3)CC2)cc(C)c1F` [Compound 118, 1-((4S,7R)-9-(1-(1-(1H-tetrazol-5-yl)cyclopropyl)-5-((S)-2,2-dimethyltetrahydro-2H-pyran-4-yl)-1H-indole-2-carbonyl)-2-(4-fluoro-3,5-dimethylphenyl)-2,4,5,6,7,8-hexahydro-4,7-epiminocyclohepta [c]pyrazol-3-yl)-3-(4-fluoro-1-methyl-1H-indazol-5-yl)-1H-imidazol-2 (3H)-one]: the concentration giving a half-maximal response (EC50) came out at 452 nM.
Turning to `Cc1cc(-n2nc3c(c2-n2ccn(-c4ccc5[nH]ncc5c4F)c2=O)[C@@H]2CC[C@H](C3)N2C(=O)c2cc3cc([C@H]4CCOC(C)(C)C4)ccc3n2[C@@]2(c3noc(=O)[nH]3)C[C@@H]2C)cc(C)c1F` [Compound 406, 3-((1S,2S)-1-(5-((S)-2,2-dimethyltetrahydro-2H-pyran-4-yl)-2-((4S,7R)-3-(3-(4-fluoro-1H-indazol-5-yl)-2-oxo-2,3-dihydro-1H-imidazol-1-yl)-2-(4-fluoro-3,5-dimethylphenyl)-2,4,5,6,7,8-hexahydro-4,7-epiminocyclohepta [c]pyrazole-9-carbonyl)-1H-indol-1-yl)-2-methylcyclopropyl)-1,2,4-oxadiazol-5 (4H)-one], the EC50 was 18.4 nM.
The result for `Cc1cc(-n2nc3c(c2-n2ccn(-c4ccc5c(cnn5C)c4F)c2=O)[C@@H]2CC[C@H](C3)N2C(=O)c2cc3cc([C@@H]4CCOC(C)(C)C4)cnc3n2[C@@]2(c3noc(=O)[nH]3)C[C@@H]2C)cc(C)c1F` [Compound 312, 3-((1S,2S)-1-(5-((R)-2,2-dimethyltetrahydro-2H-pyran-4-yl)-2-((4S,7R)-3-(3-(4-fluoro-1-methyl-1H-indazol-5-yl)-2-oxo-2,3-dihydro-1H-imidazol-1-yl)-2-(4-fluoro-3,5-dimethylphenyl)-2,4,5,6,7,8-hexahydro-4,7-epiminocyclohepta [c]pyrazole-9-carbonyl)-1H-pyrrolo[2,3-b]pyridin-1-yl)-2-methylcyclopropyl)-1,2,4-oxadiazol-5(4H)-one] reads 1340 nM; that for `CC[C@H]1C[C@]1(c1noc(=O)[nH]1)n1c(C(=O)N2[C@@H]3CC[C@H]2c2c(nn(-c4cc(C)c(F)c(C)c4)c2-n2ccn(-c4ccc5c(cnn5C)c4F)c2=O)C3)cc2cc([C@H]3CCOC(C)(C)C3)ccc21` [Compound 434, 3-[(1S,2S)-1-[5-[(4S)-2,2-dimethyltetrahydropyran-4-yl]-2-[(1S,8R)-4-(4-fluoro-3,5-dimethyl-phenyl)-3-[3-(4-fluoro-1-methyl-indazol-5-yl)-2-oxo-imidazol-1-yl]-4,5,11-triazatricyclo[6.2.1.02,6]undeca-2,5-diene-11-carbonyl]indol-1-yl]-2-ethyl-cyclopropyl]-4H-1,2,4-oxadiazol-5-one], 175 nM; that for `Cc1cc(-n2nc3c(c2-n2ccn(-c4ccc5cnncc5c4F)c2=O)[C@@H]2CC[C@H](C3)N2C(=O)c2cc3cc([C@H]4CCOC5(CC5)C4)ccc3n2[C@@]2(c3noc(=O)[nH]3)C[C@@H]2C)cc(C)c1F` [Compound 437, 3-((1S,2S)-1-(2-((4S,7R)-2-(4-fluoro-3,5-dimethylphenyl)-3-(3-(5-fluorophthalazin-6-yl)-2-oxo-2,3-dihydro-1H-imidazol-1-yl)-2,4,5,6,7,8-hexahydro-4,7-epiminocyclohepta [c]pyrazole-9-carbonyl)-5-((S)-4-oxaspiro[2.5]octan-7-yl)-1H-indol-1-yl)-2-methylcyclopropyl)-1,2,4-oxadiazol-5 (4H)-one], 55 nM.
Consider `Cc1cc(-n2nc3c(c2-c2ncn(-c4ccc5c(cnn5C)c4F)c2C)[C@H](C)N(C(=O)c2cc4cc(C5CCC(F)(F)CC5)ccc4n2C2(c4noc(=O)[nH]4)CC2)CC3)cc(C)c1F` [Compound 106, 3-[1-[5-(4,4-difluorocyclohexyl)-2-[(4S)-2-(4-fluoro-3,5-dimethyl-phenyl)-3-[1-(4-fluoro-1-methyl-indazol-5-yl)-5-methyl-imidazol-4-yl]-4-methyl-6,7-dihydro-4H-pyrazolo[4,3-c]pyridine-5-carbonyl]indol-1-yl]cyclopropyl]-4H-1,2,4-oxadiazol-5-one], for which the EC50 is above 10000 nM.
Turning to `Cc1cc(-n2nc3c(c2-n2ccn(-c4ccc5c(cnn5C)c4F)c2=O)[C@@H]2CC[C@H](C3)N2C(=O)c2cc3cc([C@H]4CCOC(C)(C)C4)ccc3n2[C@@]2(C(N)=O)C[C@@H]2C)cc(C)c1F` [Compound 138, cis-(1S,2S)-1-[5-[(4S)-2,2-dimethyltetrahydropyran-4-yl]-2-[(1S,8R)-4-(4-fluoro-3,5-dimethyl-phenyl)-3-[3-(4-fluoro-1-methyl-indazol-5-yl)-2-oxo-imidazol-1-yl]-4,5,11-triazatricyclo[6.2.1.02,6]undeca-2,5-diene-11-carbonyl]indol-1-yl]-2-methyl-cyclopropanecarboxamide], the EC50 was 1050 nM.
The result for `Cc1cc(-n2nc3c(c2-n2ccn(-c4ccc5c(cnn5C)c4F)c2=O)[C@@H]2CC[C@H](C3)N2C(=O)c2cc3cc(C4CCOC5(C4)CN(C)C5)ccc3n2C2(c3noc(=O)[nH]3)CC2)cc(C)c1F` (stereo partly drawn) [Compound 135, 3-[1-[2-[(1S,8R)-4-(4-fluoro-3,5-dimethyl-phenyl)-3-[3-(4-fluoro-1-methyl-indazol-5-yl)-2-oxo-imidazol-1-yl]-4,5,11-triazatricyclo[6.2.1.02,6]undeca-2,5-diene-11-carbonyl]-5-(2-methyl-5-oxa-2-azaspiro[3.5]nonan-8-yl)indol-1-yl]cyclopropyl]-4H-1,2,4-oxadiazol-5-one] reads above 10000 nM.
In the case of `Cc1cc(-n2nc3c(c2-c2ncn(-c4ccc5c(cnn5C)c4F)c2C)[C@H](C)N(C(=O)c2cc4cc(C5=CCC(F)(F)CC5)ccc4n2C2(c4noc(=O)[nH]4)CC2)CC3)cc(C)c1F` [Compound 105, 3-[1-[5-(4,4-difluorocyclohexen-1-yl)-2-[(4S)-2-(4-fluoro-3,5-dimethyl-phenyl)-3-[1-(4-fluoro-1-methyl-indazol-5-yl)-5-methyl-imidazol-4-yl]-4-methyl-6,7-dihydro-4H-pyrazolo[4,3-c]pyridine-5-carbonyl]indol-1-yl]cyclopropyl]-4H-1,2,4-oxadiazol-5-one] it was above 10000 nM.
The result for `Cc1cc(-n2nc3c(c2-n2ccn(-c4ccc(C(=O)N(C)C5CC5)c(Cl)c4)c2=O)[C@@H]2CCC[C@H](C3)N2C(=O)c2cc3cc([C@H]4CCOC(C)(C)C4)ccc3n2[C@@]2(c3noc(=O)[nH]3)C[C@@H]2C)cc(C)c1F` [Compound 543, 2-chloro-N-cyclopropyl-4-[3-[(1S,8R)-12-[5-[(4S)-2,2-dimethyltetrahydropyran-4-yl]-1-[(1S,2S)-2-methyl-1-(5-oxo-4H-1,2,4-oxadiazol-3-yl)cyclopropyl]indole-2-carbonyl]-4-(4-fluoro-3,5-dimethyl-phenyl)-4,5,12-triazatricyclo[6.3.1.02,6]dodeca-2,5-dien-3-yl]-2-oxo-imidazol-1-yl]-N-methyl-benzamide] reads at least 10000 nM; that for `Cc1cc(-n2nc3c(c2-n2ccn(-c4cccc(C(N)=O)c4F)c2=O)[C@@H]2CC[C@H](C3)N2C(=O)c2cc3cc([C@H]4CCOC(C)(C)C4)ccc3n2C2(c3noc(=O)[nH]3)CC2)cc(C)c1F` [Compound 125, 3-[3-[(1S,8R)-11-[5-[(4S)-2,2-dimethyltetrahydropyran-4-yl]-1-[1-(5-oxo-4H-1,2,4-oxadiazol-3-yl)cyclopropyl]indole-2-carbonyl]-4-(4-fluoro-3,5-dimethyl-phenyl)-4,5,11-triazatricyclo[6.2.1.02,6]undeca-2,5-dien-3-yl]-2-oxo-imidazol-1-yl]-2-fluoro-benzamide], above 10000 nM.

As usually defined, the EC50 is the concentration needed to bring the measured effect to its halfway point.
